Measured values: patent US5132409A, “Macrocyclic chelating agents and chelates thereof” (Bracco Industria Chimica S.p.A., priority 1987, dated 1992)

How the values were obtained:
[1] = Determination of relaxivity (MINISPEC PC 120 BRUKER, 20 MHz proton, 39° C.); type: physicochemical; details: pH 7.3, aqueous solvent, 0-5 mM; for Transverse relaxivity (R2): Carr, Purcell, Meiboom and Gill sequence; for Longitudinal relaxivity (R1): Inversion Recovery
Description: Determination of the Relaxivity of the Compounds of the Present Invention
A) Apparatus: […] PC 120 (BRUKER)
B) Observation frequency:
39° C., with pre-thermostatization
of the NMR test tube for 10 min
at the operative temperature
in the range from 0 to 5 mM with the
following specific measuring points:
F) pH: 7.3, to be checked again
potentiometrically before the
relaxation measurement.
Longitudinal relaxivity (R1) measurements were calculated using the "Inversion Recovery" sequence with an 8 point minimum and a 3 parameter fit, according to the program provided for the […] 120 BRUKER instrument, by which measurements were taken.
Transverse relaxivity (R2) measurements were calculated using the sequence of Carr, Purcell, Meiboom and Gill, according to the program provided for the […] 120 BRUKER instrument, by means of which measurements were taken, adjusting the apparatus in such a way as to observe the decay of the signal to about 1/3 of the starting value, with a score number higher or equal to 10 and a 2 parameter fit.

mouse = assay: Determination of LD50 in the mouse by intravenous administration; type: in vivo; details: male and female mice, strain Crl:CD1(ICR)BR
Source text: Determination of LD50 in the Mouse by Intravenous Administration of the Compounds of the Present Invention
In table II are reported, as non-limiting examples, the LD50 values for compounds A and B of the present invention, in comparison with GdCl3 and with Gd/DTPA neutralized with N-methylglucamine.
*male and female mice were used, Strain: Crl:CD1(ICR)BR

[2] = background statement in words; cited from earlier work

Row | Molecule | Transverse relaxivity (R2) [1] | Longitudinal relaxivity (R1) [1] | LD50 in the mouse (mouse) | removal from the blood stream and from the lesions of the tissues under examination [2]
1 | D(-)-N-methylglucamine salt of the Gd^(3+) /2-[1,4,7,10-tetraaza-4,7,10-tri(carboxymethyl)-cyclododecane-1-yl]-3-benzyloxypropionic acid complex | 5.67 ± 0.02 mM/s | 4.15 ± 0.01 mM/s | 8.8 (7.79-9.94) mmol/kg | –
2 | CNC[C@H](O)[C@@H](O)[C@H](O)[C@H](O)CO.CNC[C@H](O)[C@@H](O)[C@H](O)[C@H](O)CO.O=C([O-])CN(CCN(CC(=O)[O-])CC(=O)O)CCN(CC(=O)[O-])CC(=O)O.[Gd+3] [Gd/DTPA, reference compound] | 5.15 ± 0.02 mM/s | 4.08 ± 0.01 mM/s | 4.8 (4.47-5.16) mmol/kg | too quickly removed from the blood stream and from the lesions of the tissues under examination
3 | [Cl][Gd]([Cl])[Cl] [GdCl3, reference compound] | – | – | 0.28 (0.24-0.32) mmol/kg | –
4 | D(-)-N-methylglucamine salt of Gd^(3+) /2-[1,4,7,10-tetraaza-4,7,10-tri(carboxymethyl)-cyclododecane-1-yl]-3-hydroxypropionic acid complex | 5.06 ± 0.01 mM/s | 3.72 ± 0.01 mM/s | 13.1 (12.2-14.1) mmol/kg | –
